{"source": "patent US9895363B2", "about": "“Methods for modulating function of proliferating cell nuclear antigen (PCNA) and treating cancer with PCNA-targeting compounds” (University of Cincinnati, priority 2010, dated 2018)", "key": {"[1]": {"tested_on": "K1735 melanoma cells", "experiment": "Growth inhibition by MTT staining, K1735", "assay_type": "cell-based", "details": "96 h, Mouse, treated four days", "experimental": "(§1) Growth inhibitory effects of PCNA-I1 and PCNA-I2 were assessed in human cancer cell lines, mouse cancer cell lines, immortalized mouse cell lines, and human primary cell lines. Specifically, growth inhibitory effects of PCNA-I1 and PCNA-I2 were assessed using MTT staining in the following cells lines: 1) human cancer cell lines including LNCaP (androgen receptor […]), 22Rv1, DU-145, LAPC-4, and PC-3 (androgen receptor […]) prostate cancer cells; MCF-7 and T47D breast cancer cells; A375 and MDA-MB435 melanoma cells; 2) mouse cancer cell lines including TRAMP-C2RE3 prostate cancer cells, B16 and K1735 melanoma cells, UV2237 fibrosarcoma cells, and CT-26 colon cancer cells; 3) immortalized mouse lung cell lines and mouse endothelial cell lines; and 4) primary human cell lines including umbilical endothelial cells (HUVEC, PromoCell, Heidelberg, Germany), primary bone marrow mesenchymal stem cells (HuMSC, PromoCell), primary human mammary epithelial cells (HuBrEC, Lonza, Walkersville, Md.), primary human prostate epithelial cells (HuPrEC, Lonza), and primary mouse spleen lymphocytes (isolated in this laboratory), and primary mouse bone marrow stromal cells (isolated in this laboratory). […]\n(§2) IC50 values were derived from growth inhibition curves. […] Inhibition of cell growth was calculated using the formula: growth inhibition (%)=(1−A570 of treated/A570 of control)×100. […]"}, "[2]": {"tested_on": "CT26-R500 murine colon cancer cell line", "experiment": "Growth inhibition by MTT staining, CT26-R500", "assay_type": "cell-based", "details": "Mouse tumor cells; cell line not given; read-out: IC50 Values, cell line cell blank (third row below UV2237)", "experimental": "as §1, §2"}, "[3]": {"tested_on": "HUVEC (primary human umbilical endothelial cells)", "experiment": "Growth inhibition, HUVEC", "assay_type": "cell-based", "details": "for IC50: HUVEC", "experimental": "Growth inhibitory effects of PCNA-I1 and PCNA-I2 were assessed in human cancer cell lines, mouse cancer cell lines, immortalized mouse cell lines, and human primary cell lines. Specifically, growth inhibitory effects of PCNA-I1 and PCNA-I2 were assessed using MTT staining in the following cells lines: 1) human cancer cell lines including LNCaP (androgen receptor […]), 22Rv1, DU-145, LAPC-4, and PC-3 (androgen receptor […]) prostate cancer cells; MCF-7 and T47D breast cancer cells; A375 and MDA-MB435 melanoma cells; 2) mouse cancer cell lines including TRAMP-C2RE3 prostate cancer cells, B16 and K1735 melanoma cells, UV2237 fibrosarcoma cells, and CT-26 colon cancer cells; 3) immortalized mouse lung cell lines and mouse endothelial cell lines; and 4) primary human cell lines including umbilical endothelial cells (HUVEC, PromoCell, Heidelberg, Germany), primary bone marrow mesenchymal stem cells (HuMSC, PromoCell), primary human mammary epithelial cells (HuBrEC, Lonza, Walkersville, Md.), primary human prostate epithelial cells (HuPrEC, Lonza), and primary mouse spleen lymphocytes (isolated in this laboratory), and primary mouse bone marrow stromal cells (isolated in this laboratory). PCNA-I1 and PCNA-I2 were either provided by the University of Cincinnati Drug Discovery Center (UC-DDC, Cincinnati, Ohio) or were purchased from Chembridge Co (San Diego, Calif.), ChemDiv (San Diego, Calif.), and/or Sigma-Aldrich (St Louis, Mo.).\nGrowth inhibitory effects of the compounds were assessed by MTT staining as described previously by Dong et al. in In Vitro Model for Intrinsic Drug Resistance: Effects of Protein Kinase C Activators on the Chemosensitivity of Cultured Human Colon Cancer Cells; Mol. Pharmacol. 1991; 39: 563-9. […]\nIC50 values were derived from growth inhibition curves. […] Inhibition of cell growth was calculated using the formula: growth inhibition (%)=(1−A570 of treated/A570 of control)×100. […] The fluorescence intensity was measured at 530/580 (excitation/emission) in the FLUOstar Omega microplate reader (BMG LABTECH, Cary, N.C.). […]"}, "[4]": {"tested_on": "LNCaP cells", "experiment": "MTT assay, PCNA-I1 and cisplatin alone or combined, LNCaP", "assay_type": "cell-based, Human", "details": "Homo sapiens, LNCaP", "experimental": "LNCaP or PC-3 cells were treated with a variety of concentrations of PCNA-I1 (0.1-10 μM) or cisplatin (0.1-10 μM) alone, or with a variety of concentrations of a combination of PCNA-I1 (0.1-10 μM) and cisplatin (0.1-10 μM) for four days. MTT assays were performed and IC50 values for PCNA-I1 and cisplatin were determined."}}, "note": "Read-outs that look alike come from different tables or passages of the source."}
{"compound": "Cc1ccsc1C(=O)N/N=C/c1ccc2ccccc2c1O", "note": "[PCNA-I1]", "values": [{"measurement": "IC50", "setting": "[1]", "value": 50, "unit": "nM"}, {"measurement": "IC50", "setting": "[2]", "value": 70, "unit": "nM"}, {"measurement": "Growth stimulation, HUVEC", "setting": "[3]; FIG. 2(C)", "value": "Moderate growth stimulation"}, {"measurement": "IC50", "setting": "[3]; Human, Blood Vessel, normal cells, mean of three experiments, read-out: IC50 Values, HUVEC", "value": 1540, "unit": "nM"}, {"measurement": "IC50", "setting": "[3]; Homo sapiens, FIG. 2(C), read-out: IC50, HUVEC", "value": 1540, "unit": "nM"}, {"measurement": "IC50", "setting": "[4]; 96 h, MTT, four days, single agent, read-out: IC50 doses for cell growth inhibition, LNCaP, agent alone", "value": 230, "unit": "nM"}, {"measurement": "IC50", "setting": "[4]; combined with 0.3 μM cisplatin, read-out: PCNA-I1 concentration giving 50% inhibition in combination, LNCaP", "value": 67, "unit": "nM"}]}
